The target in this experiment is human BLT1 receptor (Homo sapiens (Human), UniProt Q15722). Put plainly: BLT-1 cAMP Assay. The class given is cell-based. As to conditions: antagonist mode; HEK293 cells recombinantly expressing human BLT1 receptor; forskolin 4 μM and LTB4 2 nM; cAMP detection. Here is the method: The ability of compounds to antagonize the human BLT1 receptor was determined using a kit to measure changes in intracellular cyclic AMP levels (cAMP dynamic assay kit, Cisbio Cat. No. 62AM4PEC). HEK293 cells recombinantly expressing human BLT1 receptor, previously frozen in Recovery Medium (Life Technologies, Cat. No. 12648-010) were thawed and diluted into assay medium (HBSS (Hyclone SH 30268.01), 20 mM HEPES (Gibco 15630-106), 800 μM IBMX (Sigma I5879), 0.1% DTPA BSA (Perkin Elmer CR84-100)). The cell suspension was centrifuged at 200×g for 10 min and then resuspended in fresh assay medium to a density of 2.5×10^5 cells/mL. A Labcyte Echo 550 acoustic dispenser was used to transfer 25 nL of test compound dissolved in DMSO into the wells of a dry 384-well plate (Greiner 784075). All subsequent liquid additions were performed using a BIORAPTR (FRD; Beckman Coulter). Next, 5 μL of cell suspension was added and incubated for 20 min. at 37° C. and 5% CO2 in a humidified plastic tray. To test for agonist activity […] of assay buffer containing forskolin (Sigma F-6886. 4 μM for BLT1) was added and incubated for 30 minutes at 37° C. and 5% CO2 in a humidified plastic tray. To test for antagonist activity 5 μL of assay buffer containing forskolin (Sigma F-6886. 4 μM for BLT1) and either LTB4 (Sigma Aldrich L0517; 2 nM BLT1) was added and incubated for 30 minutes at 37° C. and 5% CO2 in a humidified plastic tray.
Sequence of human BLT1 receptor (Q15722 whole entry): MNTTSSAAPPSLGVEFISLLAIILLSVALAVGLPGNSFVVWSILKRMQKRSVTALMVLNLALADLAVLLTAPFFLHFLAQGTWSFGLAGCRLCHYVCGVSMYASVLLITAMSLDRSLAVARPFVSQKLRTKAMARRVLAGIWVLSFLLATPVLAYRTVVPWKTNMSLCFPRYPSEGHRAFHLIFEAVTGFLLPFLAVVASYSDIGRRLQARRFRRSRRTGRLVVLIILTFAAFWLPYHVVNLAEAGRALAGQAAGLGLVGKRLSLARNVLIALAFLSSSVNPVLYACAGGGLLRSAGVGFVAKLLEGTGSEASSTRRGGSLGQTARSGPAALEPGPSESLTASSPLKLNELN
The levels of cAMP were detected using the CisBio kit following the manufacturer's instructions: cAMP-d2 vial was reconstituted with distilled water and then diluted accordingly with conjugate & lysis buffer. 5 μL of cAMP-d2 working solution was added to all of the wells of the assay plate. cAMP-Cryptate vial was reconstituted with distilled water and then diluted accordingly with conjugate & lysis buffer. 5 μL of cAMP-Cryptate working solution were added to the assay plate. The assay plate was shaken for 3 minutes and incubated at room temperature for 45 minutes, then read on Perkin Elmer Envision. cAMP standard curve and fit data were plotted using a 4 parameter dose response curve fitting algorithm to fit curve. A 4-parameter curve fit (Max, min, log EC50 and slope) was used to transform fluorescent 665 nm/615 nm ratio signal to cAMP concentration. After normalization to treated and untreated controls, the percent effect of signal at each compound concentration was calculated. The plot of percent effect versus the log of compound concentration was fit with a 4-parameter concentration response equation to calculate EC50 values. Compound concentrations tested were 10 000, 3 333, 1 111, 370.4, 123.4, 41.2, 13.7, 4.6, 1.5 and 0.5 nM with 0.25% residual DMSO.
Broadly, the EC50 is the concentration that produces a half-maximal response. With `CC(C)(C)S(=O)(=O)NC(=O)c1ccccc1-c1ccc2c(c1)OC[C@H](Cc1coc(-c3ccccc3)n1)[C@H]2O` (single isomer, unassigned) [Example 48, N-(tert-Butylsulfonyl)-2-((3S,4R or 3R,4S)-4-hydroxy-3-((2-phenyloxazol-4-yl)methyl)chroman-7-yl)benzamide], the EC50 came to 5 nM.

For `C[C@@H](c1ccccn1)C1COc2cc(-c3ccccc3C(=O)NS(=O)(=O)C3(C)CC3)ccc2C1O` (stereo in doubt) [Example 49, 2-((3,4-trans)-4-Hydroxy-3-((R)-1-(pyridin-2-yl)ethyl)chroman-7-yl)-N-((1-methylcyclopropyl)sulfonyl)benzamide], the EC50 is 154 nM.

Consider `CC1(S(=O)(=O)NC(=O)c2ccccc2-c2ccc3c(c2)OC[C@@H](Cc2coc(-c4ccccc4)n2)[C@@H]3O)CC1` (racemic) [Example 43, 2-(Rac-trans)-4-hydroxy-3-((2-phenyloxazol-4-yl)methy)chroman-7-yl)-N-((1-methylcyclopropyl)sulfonyl)benzamide], for which the concentration giving a half-maximal response (EC50) was determined as 19 nM.

The values above are taken from patent publication US10336733B2, “Aryl acylsulfonamides as BLT1 antagonists” (Merck Sharp & Dohme Corp., priority 2015, dated 2019).
